Assay results as given in PubChem BioAssay AID1963845 (Molecular Pharmacology Branch, DTP, NCI, 2024).

Test system: 429239-143-T-J1-PDC complex spheroid viability
Assay: Anticancer human tumor 429239-143-T-J1-PDC patient-derived small cell lung carcinoma cell line growth inhibition [POLQ]
Conditions: for IC50: curve of first compound; for viability, T/C: stronger effect = lower value
How it was run: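 Patient-derived tumour cells were co-cultured with HUVEC and mesenchymal stem cells as multicellular spheroids at 37 °C. They were treated with POLQ inhibitors (novobiocin, ART-558, RP6685) alone or combined with other agents. Top concentrations were at or near clinical Cmax (otherwise 10 microM; SN-38 at 1 microM), decreasing in half-log steps.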

[1] = second compound 0.0316 µM, first compound 0.0316 µM
[2] = second compound 0.0316 µM, first compound 0.1 µM
[3] = second compound 0.0316 µM, first compound 0.316 µM
[4] = second compound 0.0316 µM, first compound 1 µM
[5] = second compound 0.0316 µM, first compound 3.16 µM
[6] = second compound 0.0316 µM, first compound 10 µM
[7] = second compound 0.1 µM, first compound 0.0316 µM
[8] = second compound 0.1 µM, first compound 0.1 µM
[9] = second compound 0.1 µM, first compound 0.316 µM
[10] = second compound 0.1 µM, first compound 1 µM
[11] = second compound 0.1 µM, first compound 3.16 µM
[12] = second compound 0.1 µM, first compound 10 µM
[13] = second compound 0.316 µM, first compound 0.0316 µM
[14] = second compound 0.316 µM, first compound 0.1 µM
[15] = second compound 0.316 µM, first compound 0.316 µM
[16] = second compound 0.316 µM, first compound 1 µM
[17] = second compound 0.316 µM, first compound 3.16 µM
[18] = second compound 0.316 µM, first compound 10 µM
[19] = second compound 1 µM, first compound 0.0316 µM
[20] = second compound 1 µM, first compound 0.1 µM
[21] = second compound 1 µM, first compound 0.316 µM
[22] = second compound 1 µM, first compound 1 µM
[23] = second compound 1 µM, first compound 3.16 µM
[24] = second compound 1 µM, first compound 10 µM
[25] = second compound 3.16 µM, first compound 0.0316 µM
[26] = second compound 3.16 µM, first compound 0.1 µM
[27] = second compound 3.16 µM, first compound 0.316 µM
[28] = second compound 3.16 µM, first compound 1 µM
[29] = second compound 3.16 µM, first compound 3.16 µM
[30] = second compound 3.16 µM, first compound 10 µM
[31] = second compound 10 µM, first compound 0.0316 µM
[32] = second compound 10 µM, first compound 0.1 µM
[33] = second compound 10 µM, first compound 0.316 µM
[34] = second compound 10 µM, first compound 1 µM
[35] = second compound 10 µM, first compound 3.16 µM
[36] = second compound 10 µM, first compound 10 µM
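Note: luminescence signal used as surrogate measure of viable cells; spheroids exposed to compounds for seven days before readout.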
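Throughout, for viability, T/C: 100% = DMSO vehicle control viability as luminescence relative to vehicle.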

C#Cc1c(F)ccc2cc(O)cc(-c3ncc4c(N5CC6CCC(C5)N6)nc(OCC56CCCN5CC(F)C6)nc4c3F)c12 (stereo not given) + Cc1cccc(N(C)C(=O)C2C(O)CCN2c2nc(C)cc(C(F)(F)F)c2C#N)c1
IC50 (second compound 0.0316 µM): > 10 µM | IC50 (second compound 0.1 µM): > 10 µM | IC50 (second compound 0.316 µM): > 10 µM | IC50 (second compound 1 µM): > 10 µM | IC50 (second compound 3.16 µM): > 10 µM | IC50 (second compound 10 µM): > 10 µM | viability, T/C [1]: 91% | viability, T/C [2]: 92.4% | viability, T/C [3]: 97.1% | viability, T/C [4]: 98.9% | viability, T/C [5]: 98.9% | viability, T/C [6]: 100% | viability, T/C [7]: 117% | viability, T/C [8]: 110% | viability, T/C [9]: 89.7% | viability, T/C [10]: 101% | viability, T/C [11]: 91.1% | viability, T/C [12]: 103% | viability, T/C [13]: 99.6% | viability, T/C [14]: 100% | viability, T/C [15]: 98.5% | viability, T/C [16]: 93.8% | viability, T/C [17]: 89.2% | viability, T/C [18]: 93.5% | viability, T/C [19]: 101% | viability, T/C [20]: 108% | viability, T/C [21]: 105% | viability, T/C [22]: 92.5% | viability, T/C [23]: 89.9% | viability, T/C [24]: 92.5% | viability, T/C [25]: 90.2% | viability, T/C [26]: 88.4% | viability, T/C [27]: 106% | viability, T/C [28]: 86.3% | viability, T/C [29]: 95.4% | viability, T/C [30]: 92% | viability, T/C [31]: 100% | viability, T/C [32]: 78.3% | viability, T/C [33]: 101% | viability, T/C [34]: 86% | viability, T/C [35]: 103% | viability, T/C [36]: 100%

CCc1cc2c(N3CCc4c(cc(Cn5ccnc5)cc4-c4cn(C)nc4C(F)(F)F)C3=O)cc(C)nc2c(OC)n1 + Cc1cccc(N(C)C(=O)C2C(O)CCN2c2nc(C)cc(C(F)(F)F)c2C#N)c1
IC50 (second compound 0.0316 µM): > 10 µM | IC50 (second compound 0.1 µM): > 10 µM | IC50 (second compound 0.316 µM): 8.03 µM | IC50 (second compound 1 µM): 8.37 µM | IC50 (second compound 3.16 µM): > 10 µM | IC50 (second compound 10 µM): 4.71 µM | viability, T/C [1]: 110% | viability, T/C [2]: 97.7% | viability, T/C [3]: 95% | viability, T/C [4]: 85.6% | viability, T/C [5]: 72.7% | viability, T/C [6]: 48.5% | viability, T/C [7]: 104% | viability, T/C [8]: 104% | viability, T/C [9]: 87.6% | viability, T/C [10]: 79% | viability, T/C [11]: 74.5% | viability, T/C [12]: 49.8% | viability, T/C [13]: 104% | viability, T/C [14]: 99.6% | viability, T/C [15]: 92.3% | viability, T/C [16]: 78.2% | viability, T/C [17]: 78.8% | viability, T/C [18]: 42.5% | viability, T/C [19]: 108% | viability, T/C [20]: 96.1% | viability, T/C [21]: 91.8% | viability, T/C [22]: 85% | viability, T/C [23]: 74.3% | viability, T/C [24]: 44.1% | viability, T/C [25]: 105% | viability, T/C [26]: 101% | viability, T/C [27]: 91.6% | viability, T/C [28]: 90.6% | viability, T/C [29]: 77.5% | viability, T/C [30]: 54.6% | viability, T/C [31]: 108% | viability, T/C [32]: 98.9% | viability, T/C [33]: 85.3% | viability, T/C [34]: 82.5% | viability, T/C [35]: 63.3% | viability, T/C [36]: 28.6%

COc1cc2cc(C(=O)CCC(=O)O)sc2cc1OC + Cc1cccc(N(C)C(=O)C2C(O)CCN2c2nc(C)cc(C(F)(F)F)c2C#N)c1
IC50 (second compound 0.0316 µM): > 10 µM | IC50 (second compound 0.1 µM): > 10 µM | IC50 (second compound 0.316 µM): > 10 µM | IC50 (second compound 1 µM): > 10 µM | IC50 (second compound 3.16 µM): > 10 µM | IC50 (second compound 10 µM): > 10 µM | viability, T/C [1]: 103% | viability, T/C [2]: 114% | viability, T/C [3]: 97.8% | viability, T/C [4]: 106% | viability, T/C [5]: 109% | viability, T/C [6]: 89.5% | viability, T/C [7]: 96.1% | viability, T/C [8]: 97.9% | viability, T/C [9]: 109% | viability, T/C [10]: 99.4% | viability, T/C [11]: 94.4% | viability, T/C [12]: 101% | viability, T/C [13]: 109% | viability, T/C [14]: 118% | viability, T/C [15]: 99.9% | viability, T/C [16]: 106% | viability, T/C [17]: 96% | viability, T/C [18]: 90.1% | viability, T/C [19]: 99.8% | viability, T/C [20]: 99.1% | viability, T/C [21]: 94.1% | viability, T/C [22]: 115% | viability, T/C [23]: 117% | viability, T/C [24]: 91.2% | viability, T/C [25]: 108% | viability, T/C [26]: 96.3% | viability, T/C [27]: 103% | viability, T/C [28]: 105% | viability, T/C [29]: 115% | viability, T/C [30]: 101% | viability, T/C [31]: 104% | viability, T/C [32]: 91.3% | viability, T/C [33]: 99.3% | viability, T/C [34]: 120% | viability, T/C [35]: 110% | viability, T/C [36]: 97.7%

O=C(Nc1ccc(O)c(NS(=O)(=O)c2ccc(F)cc2)c1)c1ccc(-c2ccccc2)cc1 + Cc1cccc(N(C)C(=O)C2C(O)CCN2c2nc(C)cc(C(F)(F)F)c2C#N)c1
IC50 (second compound 0.0316 µM): > 10 µM | IC50 (second compound 0.1 µM): > 10 µM | IC50 (second compound 0.316 µM): > 10 µM | IC50 (second compound 1 µM): > 10 µM | IC50 (second compound 3.16 µM): > 10 µM | IC50 (second compound 10 µM): > 10 µM | viability, T/C [1]: 93.8% | viability, T/C [2]: 104% | viability, T/C [3]: 91.9% | viability, T/C [4]: 121% | viability, T/C [5]: 100% | viability, T/C [6]: 105% | viability, T/C [7]: 100% | viability, T/C [8]: 112% | viability, T/C [9]: 111% | viability, T/C [10]: 99.8% | viability, T/C [11]: 107% | viability, T/C [12]: 102% | viability, T/C [13]: 100% | viability, T/C [14]: 110% | viability, T/C [15]: 102% | viability, T/C [16]: 106% | viability, T/C [17]: 118% | viability, T/C [18]: 107% | viability, T/C [19]: 103% | viability, T/C [20]: 99.5% | viability, T/C [21]: 94.1% | viability, T/C [22]: 105% | viability, T/C [23]: 112% | viability, T/C [24]: 97% | viability, T/C [25]: 106% | viability, T/C [26]: 106% | viability, T/C [27]: 108% | viability, T/C [28]: 103% | viability, T/C [29]: 105% | viability, T/C [30]: 107% | viability, T/C [31]: 111% | viability, T/C [32]: 98.7% | viability, T/C [33]: 107% | viability, T/C [34]: 105% | viability, T/C [35]: 109% | viability, T/C [36]: 104%

COc1cccc2c1C(=O)c1c(O)c3c(c(O)c1C2=O)CC(O)(C(=O)CO)CC3OC1CC(N)C(O)C(C)O1 (stereo not given) + Nc1ccc(C#CCN(C(=O)Cc2ncc(C(F)(F)F)cc2C(F)(F)F)c2ccc(F)cc2)nn1
IC50 (second compound 0.0316 µM): 0.0757 µM | IC50 (second compound 0.1 µM): 0.0816 µM | IC50 (second compound 0.316 µM): 0.109 µM | IC50 (second compound 1 µM): 0.0739 µM | IC50 (second compound 3.16 µM): 0.07 µM | IC50 (second compound 10 µM): 0.0679 µM | viability, T/C [1]: 85.2% | viability, T/C [2]: 38.8% | viability, T/C [3]: 5.33% | viability, T/C [4]: 1.05% | viability, T/C [5]: 0.09% | viability, T/C [6]: 0.32% | viability, T/C [7]: 83.5% | viability, T/C [8]: 42.8% | viability, T/C [9]: 7.41% | viability, T/C [10]: 0.82% | viability, T/C [11]: 0.06% | viability, T/C [12]: 0.05% | viability, T/C [13]: 87.3% | viability, T/C [14]: 53.6% | viability, T/C [15]: 6.68% | viability, T/C [16]: 0.74% | viability, T/C [17]: 0.05% | viability, T/C [18]: 0.19% | viability, T/C [19]: 83.1% | viability, T/C [20]: 38.2% | viability, T/C [21]: 5.31% | viability, T/C [22]: 0.69% | viability, T/C [23]: 0.1% | viability, T/C [24]: 0.83% | viability, T/C [25]: 83.9% | viability, T/C [26]: 34.8% | viability, T/C [27]: 5.88% | viability, T/C [28]: 0.94% | viability, T/C [29]: 1.4% | viability, T/C [30]: 0.16% | viability, T/C [31]: 80.7% | viability, T/C [32]: 34.4% | viability, T/C [33]: 5.07% | viability, T/C [34]: 0.55% | viability, T/C [35]: 1.2% | viability, T/C [36]: 0.18%
